Experiments:
[1] = biological target: human LTA4 hydrolase (Homo sapiens (Human), UniProt P09960); test: LTA4H Enzyme assay (peptidase, Arg-AMC cleavage); format: biochemical; conditions: LTA4H Enzyme 1 nM, Arg-AMC substrate 50 μM, room temperature 1 h, fluorescence
Procedure: The compounds of the invention are assessed for the ability to interact with human LTA4 hydrolase in an enzymatic assay that measures the ability of the enzyme to cleave the peptide bond of arginyl-aminomethylcoumarin (Arg-AMC). LTA4H Enzyme (1 nM final), Arg-AMC substrate (50 μM final), and compound are combined in a reaction buffer (50 mM Tris-HCl (pH 7.5), 100 mM KCl, 0.5% bovine serum albumin) at room temperature for 1 h. The formation of product is assessed by measuring the fluorescence of aminomethylcoumarin product (excitation wavelength 380 nm/emission wavelength 460 nm).

[2] = tested on: synthesis of LTB4 in human whole blood; test: LTB4 production inhibition assay in human whole blood (HWB); format: cell-based; conditions: heparinized human whole blood, 15 min at 37° C., Calcimycin 20 μM 30 min, plasma LTB4 by HTRF
Procedure: The compounds of the invention are additionally tested in a human whole blood (HWB) assay to determine their ability to inhibit the synthesis of LTB4 in a cellular system. Compounds are combined with heparinized human whole blood and incubated for 15 minutes at 37° C. Calcimycin (20 μM final, prepared in phosphate-buffered saline, pH 7.4) is then added and the mixture is incubated for another 30 minutes at 37° C. The samples are centrifuged for 5 min at low speed (1500×g) and the plasma layer is removed. Plasma LTB4 concentrations are then measured using an antibody-based homogenous time-resolved fluorescence method (CisBio, Bedford, Mass.).

Chain of human LTA4 hydrolase (P09960 whole entry): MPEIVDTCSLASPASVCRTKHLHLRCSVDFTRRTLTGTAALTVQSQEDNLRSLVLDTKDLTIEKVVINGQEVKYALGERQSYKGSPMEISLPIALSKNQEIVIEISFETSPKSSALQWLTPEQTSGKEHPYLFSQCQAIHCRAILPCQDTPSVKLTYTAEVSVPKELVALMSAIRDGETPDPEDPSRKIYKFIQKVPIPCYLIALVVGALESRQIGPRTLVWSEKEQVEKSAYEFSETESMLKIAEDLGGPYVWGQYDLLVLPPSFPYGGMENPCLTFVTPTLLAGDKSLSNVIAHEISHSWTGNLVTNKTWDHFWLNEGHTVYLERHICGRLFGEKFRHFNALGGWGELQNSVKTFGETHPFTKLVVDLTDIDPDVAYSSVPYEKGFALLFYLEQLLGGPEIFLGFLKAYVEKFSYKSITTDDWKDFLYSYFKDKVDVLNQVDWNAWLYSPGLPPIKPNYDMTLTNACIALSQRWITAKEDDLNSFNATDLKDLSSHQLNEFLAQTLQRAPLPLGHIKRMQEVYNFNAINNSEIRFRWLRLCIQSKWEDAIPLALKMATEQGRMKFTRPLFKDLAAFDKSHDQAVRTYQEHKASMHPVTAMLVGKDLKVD

SMILES	IC50 [1] [nM]	IC50 [2] [nM]
CO[C@@H](C)C(=O)N1CC2CCC(C1)N2Cc1ccc2cc(Oc3ccc(-c4ccn[nH]4)cn3)ccc2n1 [Example 53, (S)-2-Methoxy-1-(8-{6-[5-(2H-pyrazol-3-yl)-pyridin-2-yloxy]-quinolin-2-ylmethyl}-3,8-diaza-bicyclo[3.2.1]oct-3-yl)-propan-1-one]	0.66	110
O=C([C@H]1CCCO1)N1CC2CCC(C1)N2Cc1ccc2cc(Oc3ccc(-c4ccn[nH]4)cn3)ccc2n1 [Example 54, (8-{6-[5-(2H-Pyrazol-3-yl)-pyridin-2-yloxy]-quinolin-2-ylmethyl}-3,8-diaza-bicyclo[3.2.1]oct-3-yl)-(R)-tetrahydro-furan-2-yl-methanone]	1.3	190
O=C([C@@H]1CCCO1)N1CC2CCC(C1)N2Cc1ccc2cc(Oc3ccc(-c4ccn[nH]4)cn3)ccc2n1 [Example 55, (8-{6-[5-(2H-Pyrazol-3-yl)-pyridin-2-yloxy]-quinolin-2-ylmethyl}-3,8-diaza-bicyclo[3.2.1]oct-3-yl)-(S)-tetrahydro-furan-2-yl-methanone]	1.7	280
O=C(N1CC2CCC(C1)N2Cc1ccc2cc(Oc3ccc(-c4ccn[nH]4)cn3)ccc2n1)C1(O)CC1 [Example 56, (1-Hydroxy-cyclopropyl)-(8-{6-[5-(2H-pyrazol-3-yl)-pyridin-2-yloxy]-quinolin-2-ylmethyl}-3,8-diaza-bicyclo[3.2.1]oct-3-yl)-methanone]	0.53	150
C[C@H](O)C(=O)N1CC2CCC(C1)N2Cc1ccc2cc(Oc3ccc(-c4ccn[nH]4)cn3)ccc2n1 [Example 57, (S)-2-Hydroxy-1-(8-{6-[5-(2H-pyrazol-3-yl)-pyridin-2-yloxy]-quinolin-2-ylmethyl}-3,8-diaza-bicyclo[3.2.1]oct-3-yl)-propan-1-one]	0.43	98
CC(C)(O)C(=O)N1CC2CCC(C1)N2Cc1ccc2cc(Oc3ccc(-c4ccn[nH]4)cn3)ccc2n1 [Example 58, 2-Hydroxy-2-methyl-1-(8-{6-[5-(2H-pyrazol-3-yl)-pyridin-2-yloxy]-quinolin-2-ylmethyl}-3,8-diaza-bicyclo[3.2.1]oct-3-yl)-propan-1-one]	0.45	120
C[C@@H](O)C(=O)N1CC2CCC(C1)N2Cc1ccc2cc(Oc3ccc(-c4ccn[nH]4)cn3)ccc2n1 [Example 59, (R)-2-Hydroxy-1-(8-{6-[5-(2H-pyrazol-3-yl)-pyridin-2-yloxy]-quinolin-2-ylmethyl}-3,8-diaza-bicyclo[3.2.1]oct-3-yl)-propan-1-one]	0.54	110
COCC(=O)N1CC2CCC(C1)N2Cc1ccc2cc(Oc3ccc(-c4ccn[nH]4)cn3)ccc2n1 [Example 60, 2-Methoxy-1-(8-{6-[5-(2H-pyrazol-3-yl)-pyridin-2-yloxy]-quinolin-2-ylmethyl}-3,8-diaza-bicyclo[3.2.1]oct-3-yl)-ethanone]	0.33	110
O=C1[C@@H](O)CCN1C1CCN(C[C@@H]2Cc3ccc(Oc4ccc(-c5ccn[nH]5)cn4)cc3O2)CC1 [Example 61, (S)-3-Hydroxy-1-(1-{(S)-6-[5-(2H-pyrazol-3-yl)-pyridin-2-yloxy]-2,3-dihydro-benzofuran-2-ylmethyl}-piperidin-4-yl)-pyrrolidin-2-one]	1.2	220
O=C1[C@@H](O)CCN1C1CCN(C[C@H]2Cc3ccc(Oc4ccc(-c5ccn[nH]5)cn4)cc3O2)CC1 [Example 62, (S)-3-Hydroxy-1-(1-{(R)-6-[5-(2H-pyrazol-3-yl)-pyridin-2-yloxy]-2,3-dihydro-benzofuran-2-ylmethyl}-piperidin-4-yl)-pyrrolidin-2-one]	0.77	340
O=C1CCCN1C1CCN(C[C@H]2Cc3ccc(Oc4ccc(-c5ccn[nH]5)cn4)cc3O2)CC1 [Example 63, 1-(1-{(R)-6-[5-(2H-Pyrazol-3-yl)-pyridin-2-yloxy]-2,3-dihydro-benzofuran-2-ylmethyl}-piperidin-4-yl)-pyrrolidin-2-one]	0.66	190
O=C1CCCN1C1CCN(C[C@@H]2Cc3ccc(Oc4ccc(-c5ccn[nH]5)cn4)cc3O2)CC1 [Example 64, 1-(1-{(S)-6-[5-(2H-Pyrazol-3-yl)-pyridin-2-yloxy]-2,3-dihydro-benzofuran-2-ylmethyl}-piperidin-4-yl)-pyrrolidin-2-one]	0.95	150
O=C(CO)N1CCN(CC2Cc3ccc(Oc4ccc(-c5ccn[nH]5)cn4)cc3O2)CC1 (stereo not shown) [Example 65, 2-Hydroxy-1-(4-{6-[5-(2H-pyrazol-3-yl)-pyridin-2-yloxy]-2,3-dihydro-benzofuran-2-ylmethyl}-piperazin-1-yl)-ethanone]	4.6	560
CS(=O)(=O)N1CCN(Cc2ccc3cc(Oc4ccc(-c5ccn[nH]5)cn4)ccc3n2)CC1 [Example 66, 2-(4-Methanesulfonyl-piperazin-1-ylmethyl)-6-[5-(2H-pyrazol-3-yl)-pyridin-2-yloxy]-quinoline]	1.7	430
CCS(=O)(=O)N1CCN(Cc2ccc3cc(Oc4ccc(-c5ccn[nH]5)cn4)ccc3n2)CC1 [Example 67, 2-(4-Ethanesulfonyl-piperazin-1-ylmethyl)-6-[5-(2H-pyrazol-3-yl)-pyridin-2-yloxy]-quinoline]	2.9	550
O=C1CCCN1C1CCN(CCC2COc3cc(Oc4ccc(-c5ccn[nH]5)cn4)ccc32)CC1 (stereo not shown) [Example 68, 1-[1-(2-{6-[5-(2H-Pyrazol-3-yl)-pyridin-2-yloxy]-2,3-dihydro-benzofuran-3-yl}-ethyl)-piperidin-4-yl]-pyrrolidin-2-one]	1.1	270
O=C1OCCN1C1CCN(CCC2COc3cc(Oc4ccc(-c5ccn[nH]5)cn4)ccc32)CC1 (stereo not shown) [Example 69, 3-[1-(2-{6-[5-(2H-Pyrazol-3-yl)-pyridin-2-yloxy]-2,3-dihydro-benzofuran-3-yl}-ethyl)-piperidin-4-yl]-oxazolidin-2-one]	0.75	210
O=C1[C@@H](O)CCN1C1CCN(CCC2COc3cc(Oc4ccc(-c5ccn[nH]5)cn4)ccc32)CC1 (stereo partly drawn) [Example 70, (S)-3-Hydroxy-1-[1-(2-{6-[5-(2H-pyrazol-3-yl)-pyridin-2-yloxy]-2,3-dihydro-benzofuran-3-yl}-ethyl)-piperidin-4-yl]-pyrrolidin-2-one]	1.7	290
CS(=O)(=O)N1CCN(CCC2COc3cc(Oc4ccc(-c5ccn[nH]5)cn4)ccc32)CC1 (stereo not shown) [Example 71, 1-Methanesulfonyl-4-(2-{6-[5-(2H-pyrazol-3-yl)-pyridin-2-yloxy]-2,3-dihydro-benzofuran-3-yl}-ethyl)-piperazine]	1.7	490
O=C1CCCN1C1CCN(CCc2coc3cc(Oc4ccc(-c5ccn[nH]5)cn4)ccc23)CC1 [Example 72, 1-[1-(2-{6-[5-(2H-Pyrazol-3-yl)-pyridin-2-yloxy]-benzofuran-3-yl}-ethyl)-piperidin-4-yl]-pyrrolidin-2-one]	0.47	160
O=C1[C@@H](O)CCN1C1CCN(CCc2coc3cc(Oc4ccc(-c5ccn[nH]5)cn4)ccc23)CC1 [Example 73, (S)-3-Hydroxy-1-[1-(2-{6-[5-(2H-pyrazol-3-yl)-pyridin-2-yloxy]-benzofuran-3-yl}-ethyl)-piperidin-4-yl]-pyrrolidin-2-one]	0.73	220
CS(=O)(=O)N1CCN(CCc2coc3cc(Oc4ccc(-c5ccn[nH]5)cn4)ccc23)CC1 [Example 74, 1-Methanesulfonyl-4-(2-{6-[5-(2H-pyrazol-3-yl)-pyridin-2-yloxy]-benzofuran-3-yl}-ethyl)-piperazine]	1.4	350
CO[C@@H](C)C(=O)N1CCN(CCc2coc3cc(Oc4ccc(-c5ccn[nH]5)cn4)ccc23)CC1 [Example 75, (S)-2-Methoxy-1-[4-(2-{6-[5-(2H-pyrazol-3-yl)-pyridin-2-yloxy]-benzofuran-3-yl}-ethyl)-piperazin-1-yl]-propan-1-one]	0.88	250
CO[C@H](C)C(=O)N1CCN(CCC2COc3cc(Oc4ccc(-c5ccn[nH]5)cn4)ccc32)CC1 (stereo partly drawn) [Example 76, (R)-2-Methoxy-1-[4-(2-{6-[5-(2H-pyrazol-3-yl)-pyridin-2-yloxy]-2,3-dihydro-benzofuran-3-yl}-ethyl)-piperazin-1-yl]-propan-1-one]	1.7	360
COCC(=O)N1CCN(CCc2coc3cc(Oc4ccc(-c5ccn[nH]5)cn4)ccc23)CC1 [Example 77, 2-Methoxy-1-[4-(2-{6-[5-(2H-pyrazol-3-yl)-pyridin-2-yloxy]-benzofuran-3-yl}-ethyl)-piperazin-1-yl]-ethanone]	0.88	170
CO[C@H](C)C(=O)N1CCN(CCc2coc3cc(Oc4ccc(-c5ccn[nH]5)cn4)ccc23)CC1 [Example 78, (R)-2-Methoxy-1-[4-(2-{6-[5-(2H-pyrazol-3-yl)-pyridin-2-yloxy]-benzofuran-3-yl}-ethyl)-piperazin-1-yl]-propan-1-one]	0.92	190
